Data reported in patent publication US11234982B2, “Methods for treating ocular surface pain” (NOVARTIS AG, priority 2019, dated 2022).

System: cornea
Assay: Esthesiometry assessment (Part 3): corneal sensitivity, anesthetic effect
Assay type: in vivo, human
Conditions: for Anesthetic effect on the cornea (esthesiometry): single eye drop: tetracaine 0.5%, diclofenac 0.1%, compound I 2.5%
From the text: Part 3 was an esthesiometry assessment to evaluate the anesthetic properties of compound I. Part 3 of the study had four arms, with compound I, vehicle, tetracaine (0.5% ophthalmic solution, used as a positive control) and diclofenac sodium (0.1% ophthalmic solution, used as the active NSAID comparator). Ocular anesthetic was selected because of its established anesthetic effect; however it is not the standard of care due to its negative effect on wound healing. NSAID is the current standard of care for corneal pain after PRK with minimal anesthetic but significant pain control properties. Vehicle eye drops were used as a negative control to enable better determination of the potential anesthetic effect. Twelve healthy subjects, who met the eligibility criteria, were randomized to receive a single eye drop of 4 study treatments, each during 1 of 4 different study days (Days 1, 4, 7 and 10). Each subject was randomized to receive the study treatment according to one of the following four sequences: • Sequence 1: Anesthetic, NSAID, compound I 2.5%, Vehicle • Sequence 2: NSAID, Vehicle, Anesthetic, compound I 2.5% • Sequence 3: Vehicle, compound I 2.5%, NSAID, Anesthetic • Sequence 4: compound I 2.5%, Anesthetic, Vehicle, NSAID
Inclusion Criteria: • Written informed consent was obtained before any assessment was performed. • Healthy male and female subjects aged 18 to 50 years (inclusive), and in good health as determined by past medical history, physical examination, vital signs, ECG, and laboratory tests at Screening. • At Screening, and Baseline, vital signs (systolic and diastolic blood pressure (BP) and pulse rate) were assessed in the sitting position after the subject had rested for at least 3 minutes and again after 3 minutes in the standing position. […] BMI=Body weight (kg)/[Height (m)]^2 • Subjects who were able to communicate well with the Investigator, to understand and comply with the requirements of the study. • For Part 3, subjects Baseline levels of eye sensitivity were to be in the range of 50 to 60 mm (inclusive) as measured by the Cochet-Bonnet esthesiometer.
The first-in-human study further evaluated potential anesthetic effect of topical ocular 2.5% compound I by esthesiometry testing, i.e. measurement of the filament length (cm) when the threshold of cornea touch is perceived.

SMILES | Anesthetic effect on the cornea (esthesiometry) | Corneal sensitivity, least squares means, Test vs Ref: vs Diclofenac 0.1% (Tetracaine 0.5% (N=12) vs Diclofenac 0.1% (N=12) at 2.5, 10 and 20 minutes post-dose) | Corneal sensitivity, least squares means, Test vs Ref: vs Vehicle (Tetracaine 0.5% (N=12) vs Vehicle (N=12) at 2.5, 10 and 20 minutes post-dose)
O=C(O)Cc1ccccc1Nc1c(Cl)cccc1Cl [diclofenac, diclofenac sodium, reference compound] | no anesthetic effect | – | –
CCCCNc1ccc(C(=O)OCCN(C)C)cc1 [tetracaine, reference compound] | had an anesthetic effect | statistical and clinical significance were observed | statistical and clinical significance were observed
